Data published in patent US6541237B1, “A-1,4-glucan lyase and its use in the production of 1.5-androfructose” (Danisco A/S, priority 1994, dated 2003).
Values belong to the molecule of their own block, whether it stands above or below them.

Experiments:
[1] = test system: α-1,4-glucan lyase; experiment: Reversible and irreversible inhibitors of the lyase; format: biochemical, Gracilariopsis lemaneiformis; settings: for decrease of lyase activity (inhibition): 0.1 M inhibitor; for inhibition (second, untitled table): lyase not stated
[2] = test system: α-1,4-glucan lyase; experiment: Degradation studies: AF released by the lyase from various substrates; format: biochemical, Gracilariopsis lemaneiformis; settings: for AF released: substrate 10 mg/ml, 10 mM HOAc-NaOAc pH 3.8, 40 min at 45° C., 100 ul
Method: Reaction conditions: The reaction mixture contained 10 mM of HOAc-NaOAc (pH 3.8). The substrate concentration was 10 mg/ml. The final volume was 100 ul after the addition of lyase and water. The reaction time was 40 min at 45° C.

[3] = test system: α-1,4-glucan lyase; experiment: Substrate specificity for oligosaccharides by Dionex HPLC; format: biochemical; settings: 8 mg/ml substrate, 0.1M MES pH 6.3, 60 min at 30° C.
Method: The specificity of α-1,4-glucan lyase for different oligosaccharides was tested. […] The oligosaccharides were dissolved in H2O at a concentration of 8 mg/ml. The enzyme assay contained 150 μl substrate G2/G3/G4/G5/G6/G7, 120 μl 0.1M MES pH 6.3 and 30 μl purified enzyme. The reaction mixture was incubated for 60 min at 30° C. Afterwards the reaction was stopped by boiling for 3 min and 900 μl absolute ethanol was added for precipitation. After centrifugation at 20.000×g for 5 min at 4° C. the supernatant was transferred to a new eppendorf tube and lyophilized.
The freeze-dried samples were dissolved in 1000 μl H2O and were filtrated through a 0.22 μm Millipore filter before 25 μl of the sample was loaded on the Dionex HPLC.
Analyses were performed on a Dionex 4500i chromatography system consisting of a GPM-2 pump and a PED detector which was used in pulse-amperometric detection mode. The anion exchange columns were a CarboPac PA-100 (4×250 mm) and a CarboPac PA-100 guard column (3×25 mm) from Dionex. The eluent were 200 mM sodium hydroxide (A), 500 mM sodium acetate (B) and 18 M ohm de-ionized water (C). The pump was programmed in 2 different ways, method no. 1 and method no.

[4] = ESR analysis of hydroxyl radical scavenging (Fenton reaction, DMPO spin trap); settings: for Peak height of ESR-spectra [120 s] / Peak height of ESR-spectra [300 s]: H2O2 0.17 mM, Fe2+ 4.8 μM
Method: Hydroxyl radicals were generated by a Fenton reaction with H2O2 (0.17 mM) and FeSO4 (4.8 μM). The generated radicals were trapped by 5,5-dimethyl-1-pyrroline N-oxide (DMPO, 9.7 mM). AF was added in concentrations of 1.3 mM and 6.3 mM. A water soluble extract of rosemary (Rosmarinus officinalis L.) was analyzed in a concentration of 0.25 mg/ml (in grams equivalent to 1.26 mM AF). Measurements were carried out at room temperature (20±1° C.) after 120 s and repeated for the same reaction mixture after 300 s with the following spectrometer settings: Center field 3475.60 G; sweep width 55 G; microwave power 20 mW; modulation frequency 100 kHz; modulation amplitude 1.01 G; receiver gain 1.00·10^5; conversion time 81.92 ms time constant 163.84 ms and sweep time 83.89 s.
The spin adduct gives rise to a characteristic 1:2:2:1 ESR spectrum. The peak height of the spectrum is proportional to the quantitative amount of generated spin adduct. Addition of both DMPO and AF will set up a competition between the spin trap and AF. A reduction of peak height will indicate a good scavenging activity of AF.

[5] = Electrochemical oxygen consumption in methyl linoleate emulsion; settings: AF 15, 146 and 680 μM; metmyoglobin initiated; 25.0° C.
Method: The activity of AF was investigated in a methyl linoleate emulsion as described by Jorgensen and Skibsted (Z. Lebensm. Unters. Forsch. (1993) 196: 423-429) with minor modifications: To 5.00 ml of a 1.33 mM methyl linoleate emulsion in 5.0 mM aqueous phosphate buffer with pH=5.8 and 0.2 w/w % Tween 20 as emulsifier was added AF in the following concentrations: 0, 15, 146 and 680 μM. The oxidation in the system was initiated by addition of 50 μl […] metmyoglobin (MMb) final concentration 0.26 mM. Immediately after initiating the reaction the sample was injected to a thermostated (25.0±0.1° C.) 70 μl closed cell, effectively excluding diffusion of oxygen into the system. The oxygen consumption was measured by a Clark electrode, which was connected to a PC data collection program. The relative oxygen concentration (%) was registered every 30 s.

[6] = Induction period of 50% mayonnaise in bomb calorimeter; settings: +500 ppm in mayonnaise; 80° C., pure O2
Method: In the test procedure the anti-oxidants were added to the mayonnaise to provide an anti-oxidant concentration in the order of about 500 ppm. The mayonnaise was then placed in a bomb calorimeter at temperature 80° C. containing pure O2. An induction period to the onset of substantial oxidation of the product is then measured.

[7] = Induction period of yogurt salad dressing with 50% oil
Description: For each temperature defined as PF=IP of the oil with added antioxidant/IP of the same oil without added antioxidant

[8] = test system: α-1,4-glucan lyase; experiment: Formation of AF from amylopectin (HPLC), end-product inhibition; format: biochemical; settings: equal AF after 30 and 120 min incubation
Method: α-1,4-glucan lyase according to the present invention hydrolyses starch to the end-product 1,5-anhydrofructose. The end-product was shown by HPLC, method 2. The enzyme assay contained 500 μl amylopectin (20 mg/ml, dissolved in H2O), 400 μl 0.1 M MES pH 6.3 and 100 μl purified enzyme. The reaction mixture was incubated at 30° C. and the reaction was stopped by boiling after 30 or 120 min incubation. High-molecular oligosaccharides were precipitated by addition of 3 vol abs. ethanol and the sample was centrifuged and freeze-dried as described above. The samples were dissolved in 125 μl H2O and 25 μl were applied on the HPLC column.

[9] = Reduction of 3,5-dinitrosalicylic acid; format: physicochemical
[10] = Oxidation of AF by air; format: physicochemical; settings: especially at high temperature, high AF concentration, long exposure
Description: Catalase is needed to dispel H2O2 formed. H2O2 will oxidize AF into two new compounds which are at present of unknown structure. The other impurities in the AF preparation are the oxidation products of AF. […] Gluconic acid was removed together with the buffer salts by ion exchange chromatography.

[11] = test system: α-1,4-glucan lyase
[12] = test system: α-1,4-glucan lyase; experiment: Effect of different reaction media upon production of AF by the lyase; format: biochemical, Gracilariopsis lemaneiformis; settings: reaction medium
Description: The production of AF using either pure water or 0.85% NaCl as reaction medium decreased the yield.

[13] = test system: α-1,4-glucan lyase; experiment: Km of the lyase; format: biochemical, Gracilariopsis lemaneiformis; settings: substrate of the lyase
Target sequence in this assay (as listed by the source): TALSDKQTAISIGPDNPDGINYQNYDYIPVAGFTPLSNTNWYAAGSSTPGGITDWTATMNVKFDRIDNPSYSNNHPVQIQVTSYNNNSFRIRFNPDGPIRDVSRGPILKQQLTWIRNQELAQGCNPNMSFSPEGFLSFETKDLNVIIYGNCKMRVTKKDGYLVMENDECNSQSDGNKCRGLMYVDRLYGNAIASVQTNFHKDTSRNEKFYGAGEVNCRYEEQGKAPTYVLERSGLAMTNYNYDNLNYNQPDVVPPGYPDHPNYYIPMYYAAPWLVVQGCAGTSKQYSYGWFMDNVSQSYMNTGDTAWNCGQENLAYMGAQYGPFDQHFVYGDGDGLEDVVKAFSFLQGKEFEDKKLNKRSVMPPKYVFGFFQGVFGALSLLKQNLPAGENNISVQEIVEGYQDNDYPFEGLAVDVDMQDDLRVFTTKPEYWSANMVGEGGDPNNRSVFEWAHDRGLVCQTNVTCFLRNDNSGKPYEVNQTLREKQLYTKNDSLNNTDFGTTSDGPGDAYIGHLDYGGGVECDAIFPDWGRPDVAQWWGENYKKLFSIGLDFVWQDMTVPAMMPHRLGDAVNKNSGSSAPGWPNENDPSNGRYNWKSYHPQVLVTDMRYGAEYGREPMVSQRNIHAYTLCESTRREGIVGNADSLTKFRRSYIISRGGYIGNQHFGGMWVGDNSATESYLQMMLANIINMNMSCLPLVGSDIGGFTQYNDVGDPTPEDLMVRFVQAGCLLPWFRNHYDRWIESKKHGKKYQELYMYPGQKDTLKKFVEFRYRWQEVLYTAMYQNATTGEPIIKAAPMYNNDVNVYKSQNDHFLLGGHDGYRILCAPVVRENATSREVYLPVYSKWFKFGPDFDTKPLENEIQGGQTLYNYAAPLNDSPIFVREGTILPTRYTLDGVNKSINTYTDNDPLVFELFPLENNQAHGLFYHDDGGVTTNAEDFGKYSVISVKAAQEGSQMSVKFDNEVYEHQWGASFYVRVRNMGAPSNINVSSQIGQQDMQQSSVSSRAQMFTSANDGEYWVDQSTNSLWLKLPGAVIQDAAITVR

[14] = test system: lyase and pullulanase; experiment: Cooperation of pullulanase and lyase in the production of AF; format: biochemical; settings: 2% substrate, 30° C., 1 day
Method: The reaction mixture contained 0.3 ml 2% potato amylopectin (Sigma) in water or 0.3 ml 2% soluble starch (Merck), 2 μl lyase and 0.36 units pullulanase (BM) as indicated.
The reaction was carried out at 30° C. for 1 day. At the end of the reaction, samples were taken for AF and Glc analysis.

[15] = test system: α-1,4-glucan lyase; experiment: Effect of substrate on the stability of the lyase; format: biochemical; settings: soluble and immobilized enzyme system
Target sequence in this assay (as listed by the source): as above

[16] = Isoelectric focusing of the α-1,4-glucan lyases; format: physicochemical; settings: isoelectrofocusing, pH gradient 3-9
Description: The relative migration rates were estimated from native PAGE on gels with 8-25% gradient; the pI values were estimated by isoelectrofocusing on gels with a pH gradient of 3-9.
FIG. 2. Isoelectric focusing of the α-1,4-glucan lyases on a gel with a pH gradient of pH 3 to pH 9. The gel was stained with PhastGel Blue R.

[17] = lyase added, pullulanase omitted
[18] = lyase omitted, pullulanase added

Molecule: [Cl-].[Na+] [NaCl]
- increase of AF yield ([11]; 0.85% (0.145 M) in the reaction mixture): up to 1 fold

Molecule: O [Water]
- AF yield ([12]; reaction time 1 day): 46 µmol
- AF yield ([12]; reaction time 3 days): 128 µmol
- AF yield ([12]; reaction time 8 days): 217 µmol

Molecule: Amylopectin
- AF released [2]: 732 nmol
- Km [13]: 3.76 mg/mL
- AF Yield (%) [14, 17]: 48.0%
- Glc Yield (%) [14, 17]: 0%
- AF Yield (%) ([14]; lyase and pullulanase added): 71.3%
- Glc Yield (%) ([14]; lyase and pullulanase added): 3.7%
- AF Yield (%) [14, 18]: 0%
- Glc Yield (%) [14, 18]: 0.33%
- effect on stability of the lyase [15]: stabilizing effect

Molecule: Glycogen
- AF released [2]: 592 nmol
- Km [13]: 3.37 mg/mL

B1: MV-lyase: lyase isolated from the fungus Morchella vulgaris, ATCC (protein)
chain: MAGLSDPLNFCKAEDYYAAAKGWSGPQKIIRYDQTPPQGTKDPKSWHAVNLPFDDGTMCVVQFVRPCVWRVRYDPSVKTSDEYGDENTRTIVQDYMTTLVGNLDIFRGLTWVSTLEDSGEYYTFKSEVTAVDETERTRNKVGDGLKIYLWKNPFRIQVVRLLTPLVDPFPIPNVANATARVADKVVWQTSPKTFRKNLHPQHKMLKDTVLDIIKPGHGEYVGWGEMGGIEFMKEPTFMNYFNFDNMQYQQVYAQGALDSREPLYHSDPFYLDVNSNPEHKNITATFIDNYSQIAIDFGKTNSGYIKLGTRYGGIDCYGISADTVPEIVRLYTGLVGRSKLKPRYILGAHQACYGYQQESDLHAVVQQYRDTKFPLDGLHVDVDFQDNFRTFTTNPITFPNPKEMFTNLRNNGIKCSTNITPVISIRDRPNGYSTLNEGYDKKYFIMDDRYTEGTSGDPQNVRYSFYGGGNPVEVNPNDVWARPDFGDNYDFPTNFNCKDYPYHGGVSYGYGNGTPGYYPDLNREEVRIWWGLQYEYLFNMGLEFVWQDMTTPAIHSSYGDMKGLPTRLLVTADSVTNASEKKLAIESWALYSYNLHKATFHGLGRLESRKNKRNFILGRGSYAGAYRFAGLWTGDNASTWEFWKISVSQVLSLGLNGVCIAGSDTGGFEPARTEIGEEKYCSPELLIRWYTGSFLLPWLRNHYVKKDRKWFQEPYAYPKHLETHPELADQAWLYKSVLEICRYWVELRYSLIQLLYDCMFQNVVDGMPLARSMLLTDTEDTTFFNESQKFLDNQYMAGDDILVAPILHSRNEVPGENRDVYLPLFHTWYPSNLRPWDDQGVALGNPVEGGSVINYTARIVAPEDYNLFHNVVPVYIREGAIIPQIQVRQWIGEGGPNPIKFNIYPGKDKEYVTYLDDGVSRDSAPDDLPQYREAYEQAKVEGKDVQKQLAVIQGNKTNDFSASGIDKEAKGYHRKVSIKQESKDKTRTVTIEPKHNGYDPSKEVGNYYTIILWYAPGFDGSIVDVSQATVNIEGGVECEIFKNTGLHTVVVNVKEVIGTTKSVKITCTTA
- pI [16]: 4.4

Now from value to molecule, other results behind:

- decrease of lyase activity (inhibition) ([1]; substrate amylopectin 1% (10 mg/ml)): 73.4%
- decrease of lyase activity (inhibition) ([1]; substrate amylopectin 2%): 67.2%
- decrease of lyase activity (inhibition) ([1]; substrate glycogen 1% (10 mg/ml)): 48.8%
- decrease of lyase activity (inhibition) ([1]; substrate glycogen 2%): 49.7%
- inhibition (second, untitled table) ([1]; substrate amylopectin (1%)): 80%
- inhibition (second, untitled table) ([1]; substrate glycogen (1%)): 57%
- activity of the lyase towards maltosaccharides ([2]; in words): low activity
- AF released [2]: 657 nmol
- 1,5-anhydrofructose formation from substrate [3]: almost no 1,5-anhydrofructose was formed
Molecule: OC[C@H]1O[C@H](O[C@H]2[C@H](O)[C@@H](O)C(O)O[C@@H]2CO)[C@H](O)[C@@H](O)[C@@H]1O (mixture of isomers) [Maltose]

- inhibition of enzyme activity by end-product [8]: not inhibited
- oxidation by air-level of oxygen [10]: can slowly be oxidized
Molecule: O=C1CO[C@H](CO)[C@@H](O)[C@@H]1O [AF, 1,5-D-anhydrofructose]
- scavenging activity of hydroxyl radicals ([4]; 1.3 mM AF): no scavenging activity
- Peak height of ESR-spectra [120 s] ([4]; 1.3 mM AF): 2634
- Peak height of ESR-spectra [300 s] ([4]; 1.3 mM AF): 2545
- scavenging activity of hydroxyl radicals ([4]; 6.3 mM AF): peak height is reduced
- Peak height of ESR-spectra [120 s] ([4]; 6.3 mM AF): 1781
- Peak height of ESR-spectra [300 s] ([4]; 6.3 mM AF): 1900
- oxygen consumption curve [5]: lag-phase is observed
- IP hours (Induction Period) [6]: 32,0 hours
- IP hours (Induction Period) ([7]; 500 ppm in yogurt salad dressing): 39.5 h
- PF (Protection Factor) ([7]; 500 ppm, IP with antioxidant / IP without): 1.06
- reducing agent (antioxidant) activity [9]: can easily reduce 3,5-dinitrosalicylic acid

- effect on lyase activity ([11]; up to 20 mM in the reaction mixture): little effect
Molecule: O=C(O)CN(CCN(CC(=O)O)CC(=O)O)CC(=O)O [EDTA]
